{
  "source": "patent US6911469B2",
  "about": "“Sulfonamide compounds and pharmaceutical use thereof” (Fujisawa Pharmaceutical Co., Ltd., priority 1997, dated 2005)",
  "data": [
    {"units": {"melting point": "°C"}, "values": [
      {"smiles": "CCCCS(=O)(=O)NC(=O)c1ccc2c(=O)n(C)c(Cc3ccc(Cl)cc3Cl)nc2c1", "note": "[Example 45, 7-(1-n-butanesulfonyl-carbamoyl)-2-(2,4-dichlorobenzyl)-3-methyl-4(3H)-quinazolinone]", "melting point": "244 to 246"},
      {"smiles": "CCCCCS(=O)(=O)NC(=O)c1ccc2c(=O)nc(C)n(Cc3ccc(Cl)cc3Cl)c2c1", "note": "[Example 47-1, 1-(2,4-dichlorobenzyl)-2-methyl-7-(1-n-pentanesulfonylcarbamoyl)-4(1H)-quinazolinone]", "melting point": "168 to 170"},
      {"smiles": "Cc1nc(=O)c2ccc(C(=O)NS(=O)(=O)c3ccccc3)cc2n1Cc1ccc(Cl)cc1Cl", "note": "[Example 47-2, 7-(benzenesulfonylcarbamoyl)-1-(2,4-dichlorobenzyl)-2-methyl-4(1H)-quinazolinone]", "melting point": "214 to 216"},
      {"smiles": "CCCCS(=O)(=O)NC(=O)c1ccc2nc(C)c(=O)n(Cc3ccc(Cl)cc3Cl)c2c1", "note": "[Example 49, 7-(1-n-butanesulfonyl-carbamoyl)-1-(2,4-dichlorobenzyl)-3-methyl-2(1H)-quinoxalinone]", "melting point": "223 to 225"},
      {"smiles": "CCCCS(=O)(=O)NC(=O)c1ccc2c(c1)n(Cc1ccc(Cl)cc1Cl)c(=O)c(=O)n2C", "note": "[Example 50, 7-(1-n-butanesulfonyl-carbamoyl)-1-(2,4-dichlorobenzyl)-4-methyl-2,3-(1H, 4H)-quinoxalinedione]", "melting point": "243 to 246"},
      {"smiles": "Cc1nc2ccc(C(=O)NS(=O)(=O)c3ccccc3)cn2c1Cc1ccc(Cl)cc1Cl", "note": "[Example 56, 6-(benzenesulfonylcarbamoyl)-3-(2,4-dichlorobenzyl)-2-methylimidazo[1,2-a]pyridine]", "melting point": "308 to 310"},
      {"smiles": "Cc1nc2ccc(C(=O)NS(=O)(=O)/C=C/c3ccccc3)nc2n1Cc1ccc(Cl)cc1Cl", "note": "[Example 65-3, (E)-3-(2,4-dichlorobenzyl)-2-methyl-5-[(2-phenylethenyl)sulfonylcarbamoyl]-3H-imidazo[4,5-b]pyridine]", "melting point": "192 to 194"},
      {"smiles": "Cc1nc2ccc(C(=O)NS(=O)(=O)c3ccc(Cl)s3)nc2n1Cc1ccc(Cl)cc1Cl", "note": "[Example 65-4, 5-((5-chlorothiophene-2-yl)sulfonylcarbamoyl)-3-(2,4-dichlorobenzyl)-2-methyl-3H-imidazo[4,5-b]pyridine]", "melting point": "206 to 207"},
      {"smiles": "Cc1nc2ccc(C(=O)NS(=O)(=O)c3ccc(Br)s3)nc2n1Cc1ccc(Cl)cc1Cl", "note": "[Example 65-5, 5-((5-bromothiophen-2-yl)sulfonylcarbamoyl)-3-(2,4-dichlorobenzyl)-2-methyl-3H-imidazo[4,5-b]pyridine]", "melting point": "168 to 169"},
      {"smiles": "Cc1nc2ccc(C(=O)NS(=O)(=O)/C=C/c3ccccc3)nc2n1Cc1ccc(Br)cc1Cl", "note": "[Example 66-1, (E)-3-(4-bromo-2-chlorobenzyl)-2-methyl-5-[(2-phenylethenyl)sulfonylcarbamoyl]-3H-imidazo[4,5-b]pyridine]", "melting point": "204 to 205"},
      {"smiles": "Cc1nc2ccc(C(=O)NS(=O)(=O)/C=C/c3ccccc3)nc2n1Cc1ccc(-c2ccccc2)cc1Cl", "note": "[Example 67-2, (E)-3-(2-chloro-4-phenylbenzyl)-2-methyl-5-[(2-phenylethenyl)sulfonylcarbamoyl]-3H-imidazo[4,5-b]pyridine]", "melting point": "216 to 218"},
      {"smiles": "Cc1nc2ccc(C(=O)NS(=O)(=O)c3ccc(Cl)s3)nc2n1Cc1ccc(-c2ccccc2)cc1Cl", "note": "[Example 67-3, 3-(2-chloro-4-phenylbenzyl)-5-[(5-chlorothiophene-2-yl)sulfonylcarbamoyl]-2-methyl-3H-imidazo[4,5-b]pyridine]", "melting point": "210 to 212"},
      {"smiles": "Cc1nc2ccc(C(=O)NS(=O)(=O)c3ccc(Br)s3)nc2n1Cc1ccc(-c2ccccc2)cc1Cl", "note": "[Example 67-5, 5-[(5-bromothiophen-2-yl)sulfonylcarbamoyl]-3-(2-chloro-4-phenylbenzyl)-2-methyl-3H-imidazo[4,5-b]pyridine]", "melting point": "205 to 207"},
      {"smiles": "Cc1nc2ccc(C(=O)NS(=O)(=O)c3ccccc3)nc2n1Cc1ccc(-c2cccs2)cc1Cl", "note": "[Example 68, 5-(benzenesulfonylcarbamoyl)-3-[2-chloro-4-(thiophen-2-yl)benzyl]-2-methyl-3H-imidazo[4,5-b]pyridine]", "melting point": "225 to 226"},
      {"smiles": "Cc1nc2ccc(C(=O)NS(=O)(=O)c3ccccc3)nc2n1Cc1ccc(-c2ccc(Cl)s2)cc1Cl", "note": "[Example 69, 5-(benzenesulfonylcarbamoyl)-3-[2-chloro-4-(5-chlorothiophene-2-yl)benzyl]-2-methyl-3H-imidazo[4,5-b]pyridine]", "melting point": "215 to 217"},
      {"smiles": "CCCCCS(=O)(=O)NC(=O)c1ccc2nc(C)n(Cc3ccc(CC)cc3Cl)c2n1", "note": "[Example 70-1, 3-(2-chloro-4-ethylbenzyl)-2-methyl-5-(1-pentanesulfonylcarbamoyl)-3H-imidazo[4,5-b]pyridine]", "melting point": "138 to 139"},
      {"smiles": "CCc1ccc(Cn2c(C)nc3ccc(C(=O)NS(=O)(=O)c4ccccc4)nc32)c(Cl)c1", "note": "[Example 70-2, 5-(benzenesulfonylcarbamoyl)-3-(2-chloro-4-ethylbenzyl)-2-methyl-3H-imidazo[4,5-b]pyridine]", "melting point": "167 to 168"},
      {"smiles": "CCc1ccc(Cn2c(C)nc3ccc(C(=O)NS(=O)(=O)/C=C/c4ccccc4)nc32)c(Cl)c1", "note": "[Example 70-4, (E)-3-(2-chloro-4-ethylbenzyl)-2-methyl-5-[(2-phenylethenyl)sulfonylcarbamoyl]-3H-imidazo[4,5-b]pyridine]", "melting point": "184 to 185"},
      {"smiles": "C=Cc1ccc(Cn2c(C)nc3ccc(C(=O)NS(=O)(=O)c4ccccc4)nc32)c(Cl)c1", "note": "[Example 71, 5-(benzenesulfonylcarbamoyl)-3-(2-chloro-4-vinylbenzyl)-2-methyl-3H-imidazo[4,5-b]pyridine]", "melting point": "174 to 175"},
      {"smiles": "Cc1ccc(Cn2c(C)nc3ccc(C(=O)NS(=O)(=O)c4ccccc4)nc32)c(Cl)c1", "note": "[Example 72, 5-(benzenesulfonylcarbamoyl)-3-(2-chloro-4-methylbenzyl)-2-methyl-3H-imidazo[4,5-b]pyridine]", "melting point": "213 to 215"},
      {"smiles": "CCCCCc1ccc(Cn2c(C)nc3ccc(C(=O)NS(=O)(=O)c4ccccc4)nc32)c(Cl)c1", "note": "[Example 73, 5-(benzenesulfonylcarbamoyl)-3-(2-chloro-4-(n-pentyl)benzyl)-2-methyl-3H-imidazo[4,5-b]pyridine]", "melting point": "174 to 175"},
      {"smiles": "Cc1nc2ccc(C(=O)NS(=O)(=O)c3ccccc3)nc2n1Cc1ccc(CC(C)C)cc1Cl", "note": "[Example 74, 5-(benzenesulfonylcarbamoyl)-3-(2-chloro-4-isobutylbenzyl)-2-methyl-3H-imidazo[4,5-b]pyridine]", "melting point": "183 to 184"},
      {"smiles": "Cc1nc2ccc(C(=O)NS(=O)(=O)c3ccccc3)nc2n1Cc1ccc(CC2CCCCC2)cc1Cl", "note": "[Example 75, 5-(benzenesulfonylcarbamoyl)-3-(2-chloro-4-(cyclohexylmethyl)benzyl)-2-methyl-3H-imidazo[4,5-b]pyridine]", "melting point": "170 to 171"},
      {"smiles": "Cc1nc2ccc(C(=O)NS(=O)(=O)c3ccccc3)nc2n1Cc1ccc(/C=C/c2ccccc2)cc1Cl", "note": "[Example 76, (E)-5-(benzenesulfonylcarbamoyl)-3-(2-chloro-4-(2-phenylethenyl)benzyl)-2-methyl-3H-imidazo[4,5-b]pyridine]", "melting point": "262 to 263"},
      {"smiles": "Cc1nc2ccc(C(=O)NS(=O)(=O)c3ccccc3)nc2n1Cc1ccc(OCc2ccccc2)cc1Cl", "note": "[Example 77, 5-(benzenesulfonylcarbamoyl)-3-(4-benzyloxy-2-chlorobenzyl)-2-methyl-3H-imidazo[4,5-b]pyridine]", "melting point": "190 to 191"},
      {"smiles": "COc1ccc(Cn2c(C)nc3ccc(C(=O)NS(=O)(=O)c4ccccc4)nc32)c(Cl)c1", "note": "[Example 78, 5-(benzenesulfonylcarbamoyl)-3-(2-chloro-4-methoxybenzyl)-2-methyl-3H-imidazo[4,5-b]pyridine]", "melting point": "151 to 152"},
      {"smiles": "Cc1nc2ccc(C(=O)NS(=O)(=O)c3ccccc3)nc2n1Cc1ccc(OC(C)C)cc1Cl", "note": "[Example 79, 5-(benzenesulfonylcarbamoyl)-3-(2-chloro-4-isopropoxybenzyl)-2-methyl-3H-imidazo[4,5-b]pyridine]", "melting point": "177 to 179"},
      {"smiles": "CCCCOc1ccc(Cn2c(C)nc3ccc(C(=O)NS(=O)(=O)c4ccccc4)nc32)c(Cl)c1", "note": "[Example 80, 5-(benzenesulfonylcarbamoyl)-3-(4-(n-butoxy)-2-chlorobenzyl)-2-methyl-3H-imidazo[4,5-b]pyridine]", "melting point": "181 to 182"},
      {"smiles": "Cc1nc2ccc(C(=O)NS(=O)(=O)c3ccccc3)nc2n1Cc1ccc(OCC2CCCCC2)cc1Cl", "note": "[Example 81, 5-(benzenesulfonylcarbamoyl)-3-(2-chloro-4-((cyclohexylmethyl)oxy)benzyl)-2-methyl-3H-imidazo[4,5-b]pyridine]", "melting point": "122 to 125"},
      {"smiles": "Cc1nc2ccc(C(=O)NS(=O)(=O)c3ccccc3)nc2n1Cc1ccc(OCCN(C)c2ccccn2)cc1Cl", "note": "[Example 82, 5-(benzenesulfonylcarbamoyl)-3-(2-chloro-4-((2-(N-methyl-N-(2-pyridinyl)amino)ethyl)oxy)benzyl)-2-methyl-3H-imidazo[4,5-b]pyridine]", "melting point": "104 to 105"},
      {"smiles": "CSc1ccc(Cn2c(C)nc3ccc(C(=O)NS(=O)(=O)c4ccccc4)nc32)c(Cl)c1", "note": "[Example 83, 5-(benzenesulfonylcarbamoyl)-3-(2-chloro-4-(methylthio)benzyl)-2-methyl-3H-imidazo[4,5-b]pyridine]", "melting point": "165 to 166"},
      {"smiles": "Cc1nc2ccc(C(=O)NS(=O)(=O)c3ccccc3)nc2n1Cc1ccc([S+](C)[O-])cc1Cl", "note": "(stereo not shown) [Example 84, 5-(benzenesulfonylcarbamoyl)-3-(2-chloro-4-(methylsulfinyl)benzyl)-2-methyl-3H-imidazo[4,5-b]pyridine]", "melting point": "230 to 231"},
      {"smiles": "Cc1nc2ccc(C(=O)NS(=O)(=O)c3ccccc3)nc2n1Cc1ccc(C=O)cc1Cl", "note": "[Example 92, 5-(benzenesulfonylcarbamoyl)-3-(2-chloro-4-formylbenzyl)-2-methyl-3H-imidazo[4,5-b]pyridine]", "melting point": "253 to 255"},
      {"smiles": "Cc1nc2ccc(C(=O)NS(=O)(=O)c3ccccc3)nc2n1Cc1ccc(C=C2SC(=O)NC2=O)cc1Cl", "note": "[Example 93, 5-(benzenesulfonylcarbamoyl)-3-[2-chloro-4-[(2,4-dioxo-1,3-thiazolidine-5-ylidene)methyl]benzyl]-2-methyl-3H-imidazo[4,5-b]pyridine]", "melting point": "271 to 274"}
    ]}
  ]
}
